Assay results reported in patent US8673889B2, “BLT2-mediated disease, BLT2 binding agent and the compound” (Ono Pharmaceutical Co., Ltd., priority 2004, dated 2014).

How the values were obtained:
Assay type in all cases: cell-based
BLT2 [1] = target: T1, BLT2 (Homo sapiens, UniProt Q9NPC1); test: Evaluation of BLT2 antagonistic activity by monitoring the variation of intracellular Ca2+ concentration; design: expressed in transfected cells; host or cells: CHO cells
T1 sequence (Q9NPC1 1-358): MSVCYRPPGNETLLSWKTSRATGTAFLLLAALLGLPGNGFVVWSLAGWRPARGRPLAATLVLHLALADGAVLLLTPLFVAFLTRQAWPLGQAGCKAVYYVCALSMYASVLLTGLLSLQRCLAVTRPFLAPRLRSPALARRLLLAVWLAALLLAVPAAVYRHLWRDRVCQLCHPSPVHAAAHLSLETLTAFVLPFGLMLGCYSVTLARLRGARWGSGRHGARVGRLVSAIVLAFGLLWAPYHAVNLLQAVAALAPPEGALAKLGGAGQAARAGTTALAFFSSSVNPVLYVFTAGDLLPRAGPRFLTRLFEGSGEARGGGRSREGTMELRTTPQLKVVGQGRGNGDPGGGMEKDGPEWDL
Procedure: (§1) The receptor antagonist activity was evaluated by using human BLT2 gene-overexpressing Chinese Hamster Ovar (CHO) cells (see J. Exp. Med. Volume 192, Number 3 2000, and 421-.). BLT2-expressing cells were cultured in Ham 's F1 medium (GIBCO BRL and No. 11765-047) containing 10% FBS (fetal bovine serum), penicillin/streptomycin and blasticidin (5 μg/ml). First, to make the cells to take Fura2-AM (Dojindo and No. 348-05831), the cells were incubated in 5 μM Fura2-AM solution (Ham's F1 medium containing 10% FBS, 20 mM HEPES buffer (pH7.4) and 2.5 mM probenecid (Sigma and No. P-8761)) at 37° C. for 60 minutes. Then, the cells were washed once with Hanks solution containing 20 mM HEPES buffer (pH7.4) and 2.5 mM probenecid, and soaked in Hanks solution until assay. The plate was sat up on fluorescent drug screening system (Hamamatsu Photonics FDSS-2000) and measured without any stimulation for 30 seconds, to which the compound solution of the present invention was added. […] The compound of the present invention was dissolved to dimethylsulfoxide (DMSO) and added in order that the final concentration is […]. […] IC50 value is a concentration of the compound of the present invention in which the inhibition ratio is 50%. Also, BLT1 antagonistic activity was measured by the same way.

BLT1 [2] = target: T2, BLT1 (Homo sapiens, UniProt Q15722); test: BLT1 antagonistic activity measured by the same way (intracellular Ca2+); conditions: measured by the same way as BLT2
T2 sequence (Q15722 whole entry, species assumed): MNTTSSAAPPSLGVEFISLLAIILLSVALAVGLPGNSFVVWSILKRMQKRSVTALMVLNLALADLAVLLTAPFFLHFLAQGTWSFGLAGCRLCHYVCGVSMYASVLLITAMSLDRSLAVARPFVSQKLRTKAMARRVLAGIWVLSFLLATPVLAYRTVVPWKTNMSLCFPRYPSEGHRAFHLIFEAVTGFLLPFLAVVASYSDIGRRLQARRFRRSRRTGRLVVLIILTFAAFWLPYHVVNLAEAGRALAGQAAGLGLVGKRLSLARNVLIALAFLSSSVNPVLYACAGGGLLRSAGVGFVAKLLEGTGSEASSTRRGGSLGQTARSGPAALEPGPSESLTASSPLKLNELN
Procedure: as §1

BLT1 [3] = target: T2, BLT1; test: BLT1 agonistic activity measured by the same way (intracellular Ca2+); conditions: measured by the same way as BLT2
BLT2 [4] = target: T1, BLT2; test: Evaluation of BLT2 agonistic activity by monitoring the variation of intracellular Ca2+ concentration; design: expressed in transfected cells
mBLT2 [5] = target: T3, mBLT2 (Mus musculus, UniProt Q9JJL9); test: ERK phosphorylation (1) in mBLT2-expressing CHO cells; conditions: ligand 5 minutes, FIG. 5
T3 construct: mBLT2 ORF was amplified by PCR using a sense primer having BamHI restriction enzyme site; expressed in transfected cells
T3 sequence (Q9JJL9 1-360): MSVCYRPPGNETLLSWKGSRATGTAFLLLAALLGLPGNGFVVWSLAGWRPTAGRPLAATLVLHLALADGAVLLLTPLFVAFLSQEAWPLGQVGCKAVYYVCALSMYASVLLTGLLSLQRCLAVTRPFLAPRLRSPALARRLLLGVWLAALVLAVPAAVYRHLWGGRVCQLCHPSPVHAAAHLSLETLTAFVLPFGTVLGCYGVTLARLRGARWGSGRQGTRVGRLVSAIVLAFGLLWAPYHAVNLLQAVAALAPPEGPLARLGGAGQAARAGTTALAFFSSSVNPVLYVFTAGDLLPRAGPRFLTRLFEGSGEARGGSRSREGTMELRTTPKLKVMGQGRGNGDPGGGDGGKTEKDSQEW
Text: (§2) mBLT2 ORF was amplified by PCR using a sense primer having BamHI restriction enzyme site (sense primer; 5′-[…]-3′ (SEQ ID NO.1)) and an antisense primer having EcoRI restriction enzyme site (antisense primer; 5′-[…]-3′ (SEQ ID NO.2)). The PCR product was digested with BamHI and EcoRI and inserted in expression plasmid (pcDNA3 Invitrogen). The inserted sequence was confirmed by the DNA sequence. Plasmid DNA ([…]) was transfected into CHO cells cultured in Ham's F-12 medium containing 10% fetal bovine serum and antibiotic (streptomycin (100 μg/mL) and penicillin (100 μg/L)) in cell culture plates (6 cm). The resistant strains were obtained by culturing for 2 weeks in the existence of antibiotic (G418 [Wako], 1 mg/mL). The stable expressing strains were obtained by culturing 19 obtained resistant strains with limiting dilution method.

mBLT2 [6] = target: T3, mBLT2; test: Measurement of intracellular Ca2+ concentration in mBLT2-expressing CHO cells; conditions: FIG. 4, read-out: EC50 value, rise of the intracellular calcium concentration
Text: as §2, with “The stable expressing strains were obtained by culturing 19 obtained resistant strains with limiting dilution method.” left out
mBLT2-expressing CHO cells prepared by Biological Example 3 were cultured in modified Hepes-Tyrode's BSA buffer (Hepes-NaOH (25 mM, pH7.4), NaCl (140 mM), KCl (2.7 mM), CaCl2(10 nM), NaHCO3(12 mM), D-Glucose (5.6 mM), NaH2PO4(0.37 mM), MgCl2(0.49 mM), cremophour (0.01%), fatty acid-free BSA (fraction V, 0.1w/v %)) containing fluorochrome (Fura-2 AM [Dojin], 3 μm) at 37° C. for 2 hours to make to take fluorochrome. […] Dimethylsulfoxide (DMSO) solution (5 μL) containing ligand was added to the cell suspension, of which the intracellular calcium concentration was monitored (excitation wavelength 340 nm and 380 nm and fluorescent wave-length 510 nm).

[7] = tested on: mouse primary culture keratinocytes; test: ERK phosphorylation (2) in mouse primary culture keratinocytes; conditions: FIG. 7
mBLT1 [8] = target: T4, mBLT1 (Mus musculus, UniProt O88855); test: ERK phosphorylation (1) in mBLT1-expressing CHO cells; conditions: ligand 5 minutes, FIG. 5
T4 construct: expressed in transfected cells; host or cells: CHO cells
T4 sequence (O88855 whole entry): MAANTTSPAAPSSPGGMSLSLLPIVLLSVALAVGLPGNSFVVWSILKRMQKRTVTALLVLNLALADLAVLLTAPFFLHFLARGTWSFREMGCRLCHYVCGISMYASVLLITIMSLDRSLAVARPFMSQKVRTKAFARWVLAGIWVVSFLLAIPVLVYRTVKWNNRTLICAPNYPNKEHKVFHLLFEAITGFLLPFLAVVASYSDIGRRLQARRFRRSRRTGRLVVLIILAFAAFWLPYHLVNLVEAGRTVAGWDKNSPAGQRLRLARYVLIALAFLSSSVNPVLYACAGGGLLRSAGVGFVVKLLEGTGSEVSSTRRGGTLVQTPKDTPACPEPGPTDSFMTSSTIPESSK

mBLT1 [9] = target: T4, mBLT1; test: Measurement of intracellular Ca2+ concentration in mBLT1-expressing CHO cells; conditions: FIG. 4
mock = test: Measurement of intracellular Ca2+ concentration in mock cells; conditions: FIG. 4
Procedure: mBLT2-expressing CHO cells prepared by Biological Example 3 were cultured in modified Hepes-Tyrode's BSA buffer (Hepes-NaOH (25 mM, pH7.4), NaCl (140 mM), KCl (2.7 mM), CaCl2(10 nM), NaHCO3(12 mM), D-Glucose (5.6 mM), NaH2PO4(0.37 mM), MgCl2(0.49 mM), cremophour (0.01%), fatty acid-free BSA (fraction V, 0.1w/v %)) containing fluorochrome (Fura-2 AM [Dojin], 3 μm) at 37° C. for 2 hours to make to take fluorochrome. These cells were washed 2 times and resuspended (10^6 cells/mL) in Hepes-Tyrode's BSA buffer. The cell suspension (0.5 mL) was applied to fluorescent intensity meter (CAF-100 system [Jasco]). Dimethylsulfoxide (DMSO) solution (5 μL) containing ligand was added to the cell suspension, of which the intracellular calcium concentration was monitored (excitation wavelength 340 nm and 380 nm and fluorescent wave-length 510 nm).

IC50 (BLT2 [1]) [µM]	BLT1 antagonistic activity (BLT1 [2])	BLT1 agonistic activity (BLT1 [3])	IC50 (BLT2 [4]) [µM]	ERK phosphorylation (mBLT2 [5])	EC50 (mBLT2 [6]) [µM]	ERK phosphorylation (mBLT1 [8])	rise of intracellular calcium concentration (mBLT1 [9])	SMILES	ERK phosphorylation [7]	rise of intracellular calcium concentration (mock)
1.8	did not have BLT1 antagonistic activity	–	–	–	–	–	–	O=C([O-])c1ccc(-c2cccc(CN(CCCc3ccccc3)C(=O)CCc3ccccc3)c2)cc1.[Na+] [Example 1(32), sodium 3′-{[(3-phenylpropanoyl)(3-phenylpropyl)amino]methyl}-1,1′-biphenyl-4-carboxylate]	–	–
–	–	did not have BLT1 agonistic activity	0.045	–	–	–	–	O=C(Cc1ccccc1)NCc1ccc(-c2ccccc2C(=O)O)cc1 [Example 13, 4′-{[(phenylacetyl)amino]methyl}-1,1′-biphenyl-2-carboxylic acid]	–	–
–	–	–	–	induced	0.121	induced	–	CCCCC/C=C\C[C@@H](O)/C=C/C=C/C=C\[C@@H](O)CCCC(=O)O [LTB4, 5-[S], 12-[R]-dihydroxy-6,14-cis-8,10-trans-eicosatetraenoic acid, reference compound]	induced ERK phosphorylation	–
–	–	–	–	induced	0.021	induced	not rised	CCCCC(=O)N(Cc1ccc(-c2ccccc2C(=O)O)cc1)c1ccccc1 [compound A, 4′-{[pentanoyl(phenyl)amino]methyl}-1,1′-biphenyl-2-carboxylic acid]	induced ERK phosphorylation	not rised
